The nature of series [1]: Single-point metabolic stability, mouse liver microsomes. In kind it is in vitro ADME. For orientation: Liver microsomes are vesicles of endoplasmic reticulum, rich in cytochrome P450 enzymes.
Series [2] has as its system P. falciparum multidrug-resistant W2 strain. As to the kind of experiment: SYBR Green I fluorescence assay, asexual parasite proliferation, W2 strain. The format is cell-based. Conditions: for Resistance Index (RI) = IC50 for W2/IC50 for NF54: W2 vs NF54.
Series [3] in a line: Solubility, miniaturised shake-flask method. In kind it is physicochemical. Conditions: PBS pH 6.5, 24 h at 25 °C, HPLC-DAD, unit from abstract.
The test system of another series is HepG2 cells. In words: Lactate dehydrogenase. The note with it: for Selectivity Index (SI) = EC50 for HepG2/IC50 for NF54: HepG2 vs NF54.
The next series has as its system P. berghei. Conditions: murine P. berghei, after a single oral dose; ref François et al., 1997c; cited from earlier work.
The nature of series [4]: Single-point metabolic stability, rat liver microsomes. The format is in vitro ADME.
Series [5] is described as follows: Single-point metabolic stability, human liver microsomes. The format is in vitro ADME.
A short description of the next series: Lactate dehydrogenase. The note with it: human, Cytotoxicity EC50, HepG2, HepG2, LDH leakage, mean ± SEM, n ≥ 2.
Where [6] appears, read: Plasmodium falciparum, W2, 96 h, read-out: Inhibition of parasite proliferation IC50, W2, multidrug-resistant W2, 96 h drug pressure, mean ± SEM, n ≥ 2.

Where two headings read alike, the source gives them in different places.

Turning to `COc1cc(C)c(-c2ccc(O)c3c2C[C@@H](C)N[C@@H]3C)c2cccc(O)c12` (single isomer, unassigned) [Dioncophylline C (2a), dioncophylline C], the “% Remaining after 30 min, Mouse” value in series [1] (1 μM, mouse liver microsomes 0.4 mg/ml, 30 min, 37 °C) is reported as 95%. Moreover, the “Microsomal clearance, Mouse” value in series [1] (in vitro intrinsic clearance, mouse liver microsomes) is <11.6 µL/min/mg. The “Resistance Index (RI) = IC50 for W2/IC50 for NF54” value (“Resistance Index (RI) = IC50” for short) in series [2] was 2.9. The IC50 in series [2] (read-out: Inhibition of parasite proliferation IC50, W2, multidrug-resistant W2, 96 h drug pressure, mean ± SEM, n ≥ 2) was found to be 0.112 ± 0.01 µM. Moreover, the “Solubility PBS (pH 6.5)” value in series [3] is given as 170 μM. Besides, the “Selectivity Index (SI) = EC50 for HepG2/IC50 for NF54” value (shortened to “Selectivity Index (SI) = EC50”) with HepG2 cells was found to be 552.6. For the same compound, in the series on HepG2 cells (read-out: Cytotoxicity EC50, HepG2, HepG2, LDH leakage, mean ± SEM, n ≥ 2), the EC50 amounted to 21.2 ± 4 µM. The Parasitaemia decreased in the series on P. berghei was 99.6%. In addition, the “% Remaining after 30 min, Rat” value in series [4] (1 μM, rat liver microsomes 0.4 mg/ml, 30 min, 37 °C) worked out at 95%. In addition, the “Microsomal clearance, Rat” value in series [4] (in vitro intrinsic clearance, rat liver microsomes) was <11.6 µL/min/mg. Besides, in series [5] (1 μM, human liver microsomes 0.4 mg/ml, 30 min, 37 °C), the “% Remaining after 30 min, Human” value is 94%. Besides, the “Microsomal clearance, Human” value in series [5] (in vitro intrinsic clearance, human liver microsomes) is <11.6 µL/min/mg.

Regarding `CCN(CC)CCCC(C)Nc1ccnc2cc(Cl)ccc12` (centres unmarked) [Chloroquine, reference compound], the IC50 in series [2] (setting [6]) was 0.382 ± 0.09 µM. In addition, the “Resistance Index (RI) = IC50” value in series [2] is reported as 29.5. The “Selectivity Index (SI) = EC50” value in the series on HepG2 cells is 2855.4. The compound further showed an EC50 in the series “Lactate dehydrogenase” of 37 ± 4.5 µM.

With `COc1cc(CO)c(-c2ccc3c(c2O)[C@@H](C)N[C@H](C)C3)c2cccc(O)c12` [Dioncopeltine A (5), dioncopeltine A], the fraction remaining at 0.5 h, 1 μM in series [1] (male, CD1, mouse, liver microsomes, % Remaining after 30 min, Mouse, 1 μM, mouse liver microsomes 0.4 mg/ml, 30 min, 37 °C) was < 7%; in series [4] (male, IGS, rat, liver microsomes, % Remaining after 30 min, Rat, 1 μM, rat liver microsomes 0.4 mg/ml, 30 min, 37 °C) it was > 99%; in series [5] (both, human, liver microsomes, % Remaining after 30 min, Human, 1 μM, human liver microsomes 0.4 mg/ml, 30 min, 37 °C), 98%. In addition, the IC50 in series [2] (setting [6]) was 0.304 ± 0.06 µM. Also, the “Resistance Index (RI) = IC50” value in series [2] is listed as 38.1. In addition, in the series with HepG2 cells, the “Selectivity Index (SI) = EC50” value was 4890.8. A half-maximal response in the series “Lactate dehydrogenase” (EC50) required 39 ± 13.1 µM.

The EC50 is the concentration that produces a half-maximal response. As a reminder, the amount remaining is what is left of the initial amount, in per cent.
